# Key:
# Format in all cases: biochemical
# Settings in all cases: result in words
# [1] = target: T1, PPWD1 (Homo sapiens, UniProt Q96BP3); experiment: chymotrypsin coupled PPIase assay, PPWD1 inhibition
# T1 sequence (Q96BP3 1-646): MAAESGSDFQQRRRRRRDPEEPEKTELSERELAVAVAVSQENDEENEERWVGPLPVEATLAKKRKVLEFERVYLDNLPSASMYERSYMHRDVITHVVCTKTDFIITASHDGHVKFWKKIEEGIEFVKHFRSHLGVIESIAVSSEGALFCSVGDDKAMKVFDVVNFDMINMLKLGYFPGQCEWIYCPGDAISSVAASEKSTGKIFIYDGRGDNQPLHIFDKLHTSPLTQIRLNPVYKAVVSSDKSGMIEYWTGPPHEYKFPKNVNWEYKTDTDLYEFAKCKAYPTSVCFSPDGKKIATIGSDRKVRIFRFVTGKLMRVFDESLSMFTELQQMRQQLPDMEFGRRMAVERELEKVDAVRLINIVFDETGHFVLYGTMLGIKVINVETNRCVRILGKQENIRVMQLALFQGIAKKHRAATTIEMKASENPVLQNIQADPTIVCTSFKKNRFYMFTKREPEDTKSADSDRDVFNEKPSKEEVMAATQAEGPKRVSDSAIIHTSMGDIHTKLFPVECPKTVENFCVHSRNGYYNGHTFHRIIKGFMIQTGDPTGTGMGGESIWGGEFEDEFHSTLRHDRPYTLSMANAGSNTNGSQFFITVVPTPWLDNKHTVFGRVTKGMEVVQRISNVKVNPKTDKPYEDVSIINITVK
# Experimental: (§1) Following the synthesis of the indicated library members, in vitro inhibition (IC50) assays of these hits were conducted to obtain IC50 inhibitory data. For the IC50 assays, a chymotrypsin coupled PPIase assay using Suc-AAPF-AMC as the peptide substrate was used, whereby isomerization of a peptide substrate Suc-AAPF-AMC from the cis to trans conformation allowed for proteolysis via excess a-chymotrypsin, releasing the C-terminal coumarin fluorophore. […] Other non-inhibitor library members were also checked for binding via SPR, but produced the same profile as the prolyl isomerase assay.
# (§2) Subsequently, to determine if the compounds could both access the S2 pocket and display CypD specificity, JOMBtrans and compound 49 were screened against the 10 other cyclophilins with reported prolyl isomerase activity. […] Co-crystal structures of JOMBtrans and 49 were solved with CypD. […] Three further H-bonds with the macrocycle's backbone and CypD were observed along with a cation-n interaction. […] The benzyl group on the piperidine ring altered the conformation of the macrocycle to open up two new hydrogen bonding interactions with CypD. […] This improvement in specificity compared to JOMBtrans signified that more CypD specific compounds can be garnered by derivatization into the S2 pocket.
# [2] = target: T2, CypG (Homo sapiens, UniProt Q13427); experiment: chymotrypsin coupled PPIase assay, CypG inhibition
# T2 sequence (Q13427 1-754): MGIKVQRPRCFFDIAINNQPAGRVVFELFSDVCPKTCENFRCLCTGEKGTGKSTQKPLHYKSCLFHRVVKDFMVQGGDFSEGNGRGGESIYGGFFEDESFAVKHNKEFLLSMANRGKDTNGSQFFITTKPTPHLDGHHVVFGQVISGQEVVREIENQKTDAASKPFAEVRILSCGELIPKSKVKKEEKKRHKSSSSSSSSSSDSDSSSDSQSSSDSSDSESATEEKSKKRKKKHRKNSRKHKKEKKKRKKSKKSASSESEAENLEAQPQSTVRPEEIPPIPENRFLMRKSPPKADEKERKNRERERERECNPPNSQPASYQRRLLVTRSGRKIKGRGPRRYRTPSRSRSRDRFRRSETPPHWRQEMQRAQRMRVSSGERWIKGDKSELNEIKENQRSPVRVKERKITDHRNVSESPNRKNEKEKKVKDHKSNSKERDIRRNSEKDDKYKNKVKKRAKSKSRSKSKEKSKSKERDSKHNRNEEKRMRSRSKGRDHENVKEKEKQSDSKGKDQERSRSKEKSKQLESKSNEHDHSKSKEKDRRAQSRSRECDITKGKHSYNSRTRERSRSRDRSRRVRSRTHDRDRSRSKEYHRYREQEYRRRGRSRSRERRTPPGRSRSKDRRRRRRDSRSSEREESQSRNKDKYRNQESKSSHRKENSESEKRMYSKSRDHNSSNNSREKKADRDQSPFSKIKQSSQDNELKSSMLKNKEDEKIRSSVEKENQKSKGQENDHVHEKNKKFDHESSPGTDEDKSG
# Experimental: as §1, §2
# [3] = target: CypH (Homo sapiens, UniProt O43447); experiment: chymotrypsin coupled PPIase assay, CypH inhibition
# Chain of CypH (O43447 whole entry): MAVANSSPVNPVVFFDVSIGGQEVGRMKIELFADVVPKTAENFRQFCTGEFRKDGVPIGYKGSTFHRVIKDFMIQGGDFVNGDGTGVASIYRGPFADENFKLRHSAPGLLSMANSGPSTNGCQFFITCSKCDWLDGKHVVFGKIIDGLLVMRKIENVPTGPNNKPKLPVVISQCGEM
# Experimental: as §1, §2
structure (smiles),measurement,setting,value
NCCOCCNC(=O)[C@@H]1CCNC(=O)/C=C/C(=O)N2CCC[C@H](C2)C(=O)N[C@@H](Cc2ccc(C(=O)c3ccccc3)cc2)C(=O)NCc2ccccc2CC(=O)N1 [compound 27],inhibition of PPWD1,[1],Almost complete ablation of inhibition profiles
same,inhibition of CypG,[2],Almost complete ablation of inhibition profiles
same,inhibition of CypH,[3],Almost complete ablation of inhibition profiles
